IC50 data for three compounds are collected here from US20100004301A1, “Benzoxazoles Useful in the Treatment of Inflammation” (priority 2006, published 2010).

The assay deals with T1, mPGES-1 (Homo sapiens, UniProt O14684).
T1 construct: made in house; host or cells: E. coli
T1 sequence (O14684 1-152): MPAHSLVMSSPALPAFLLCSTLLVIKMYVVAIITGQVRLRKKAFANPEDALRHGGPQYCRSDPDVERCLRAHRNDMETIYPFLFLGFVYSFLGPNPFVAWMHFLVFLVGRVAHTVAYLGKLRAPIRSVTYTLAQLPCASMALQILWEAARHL
The assay can be described thus: mPGES-1 enzyme assay (conversion of PGH2 to PGE2, HPLC analysis). It is filed as biochemical. The settings on record: mPGES-1 expressed in E. coli, membrane fraction; 25 min preincubation, 60 s PGH2 reaction, room temperature. Here is the method: In the assay mPGES-1 catalyzes the reaction where the substrate PGH2 is converted to PGE2. mPGES-1 is expressed in E. coli and the membrane fraction is dissolved in 20 mM NaPi-buffer pH 8.0 and stored at −80° C. In the assay mPGES-1 is dissolved in 0.1M KPi-buffer pH 7.35 with 2.5 mM glutathione. The stop solution consists of H2O/MeCN (7/3), containing FeCl2 (25 mM) and HCl (0.15 M). The assay is performed at room temperature in 96-well plates. Analysis of the amount of PGE2 is performed with reversed phase HPLC (Waters 2795 equipped with a 3.9×150 mm C18 column). The mobile phase consists of H2O/MeCN (7/3), containing TFA (0.056%), and absorbance is measured at 195 nm with a Waters 2487 UV-detector.
The following is added chronologically to each well: • 1. 100 μL mPGES-1 in KPi-buffer with glutathione. Total protein concentration: 0.02 mg/mL. • 2. 1 μL inhibitor in DMSO. Incubation of the plate at room temperature for 25 minutes. • 3. 4 μL of a 0.25 mM PGH2 solution. Incubation of the plate at room temperature for 60 seconds. • 4. 100 μL stop solution. • 180 μL per sample is analyzed with HPLC.

pIC50: −log10 of the molar value.

For the compound `CC(C)Oc1ccc(-c2ccc3oc(-c4cc(NS(=O)(=O)c5cc(Cl)ccc5Cl)ccc4Cl)nc3c2)cc1` [Example 4, 2,5-Dichloro-N-{4-chloro-3-[5-(4-isopropoxyphenyl)benzoxazol-2-yl]phenyl}benzenesulfonamide], the pIC50 – broadly, −log10 of the IC50, conventionally taken in molar units – was 6.22.

`Cc1cc(C)cc(-c2cc(-c3nc4cc(C)ccc4o3)cc(NC(=O)c3ccccc3C(F)(F)F)c2N)c1` [Example 5, N-[2-Amino-3′,5′-dimethyl-5-(5-methylbenzoxazol-2-yl)biphenyl-3-yl]-2-trifluoromethylbenzamide] had a pIC50 of 6.89.

For the compound `CC(C)(C)c1ccc2oc(-c3cc(COc4cccc(Cl)c4)cc(NC(=O)c4ccccc4C(F)(F)F)c3)nc2c1` [Example 7, N-[3-(5-tert-Butylbenzoxazol-2-yl)-5-(3-chlorophenoxymethyl)phenyl]-2-trifluoromethylbenzamide], the pIC50 is 6.57.
